Test results as given in patent publication US20220117938A1, “COMBINATON THERAPY WITH A DON PRODRUG AND AN IMMUNE CHECKPOINT INHIBITOR” (DRACEN PHARMACEUTICALS, INC., priority 2019, published 2022).

Test system: MC-38 tumors
Experiment: Anti-tumor efficacy of Compound 1 in the subcutaneous MC-38 model: schedule comparison (Example 3)
Assay type: in vivo, Mus musculus
Conditions: for MST: endpoint tumor volume 2000 mm^3
Protocol: Female C57BL/6 mice were inoculated subcutaneously at right flank with MC-38 cells for tumor development. Six days after tumor inoculation, 64 mice with tumor size ranging from 50-100 mm^3 (average tumor size 71 mm^3) were selected and assigned into 8 groups using stratified randomization with 8 mice per group based upon their tumor volumes. The treatments were started from the day of randomization (defined as D0), Group 1 was treated with Vehicle (Tween 80:Ethanol:Saline—5:5:90 v/v/v), S.C. QD*20 days, Group 2 was treated with Compound 1 at 1 mpk S.C. QD*28 days, Group 3 was treated with Compound 1 at 0.5 mpk S.C. QD*28 days, Group 4 was treated with Compound 1 at 1.4 mpk S.C. 5-days ON 2-days OFF×4 cycles, Group 5 was treated with Compound 1 at 0.7 mpk S.C. 5-days ON 2-days OFF×4 cycles, Group 6 was treated with Compound 1 at 3 mpk qd×5, followed by 1 mpk qd×23, S.C. QD, Group 7 was treated with Compound 1 at 1.5 mpk qd×5, followed by 0.5 mpk qd×23, S.C. QD and Group 8 was treated with Compound 1 at 1.4 mpk 10-days ON 4-days OFF×2 cycles, S.C.
Species: Mus musculus; Strain: C57BL/6; Age: 6-8 weeks; Sex: female; Body weight (at treatment start): 16-20 g.
The MC-38 tumor cells were maintained in vitro as a monolayer culture in DMEM medium supplemented with 10% heat inactivated fetal bovine serum and 100 μg/mL penicillin streptomycin at 37° C. in an atmosphere of 5% CO2 in air. The tumor cells were routinely subcultured twice weekly by trypsin-EDTA treatment. The cells growing to a confluency around 70%-80% were harvested and counted for tumor inoculation. The cultured MC-38 were harvested, re-suspended in base medium at a density of 1×10^7 cells/mL with viability>90%. Each mouse was inoculated subcutaneously at the right flank with 1×10^6 cells in 0.1 ml base medium for tumor development.
The treatments were started on day 6 after tumor inoculation when the tumor size reached 50-100 mm^3 (average tumor size 71 mm^3). Each group consisted of 8 tumor-bearing mice. The testing article was administrated to the mice at a dosing volume of 10 mL/Kg according to the predetermined regimen as shown in Table 3-1.
Tumor sizes were measured three times a week in two dimensions using a caliper, and the volume expressed in mm^3 using the formula: V=0.5 a×b^2 where a and b are the long and short diameters of the tumor, respectively. The tumor sizes were then used for the calculations of both tumor growth inhibition (TGI) and T/C values.
TGI is calculated for each group using the formula: […]
TVTreatment_DayN is the average tumor volume of a treatment group on a given day, TVTreatment_Day0 is the average tumor volume of the treatment group on the first day of treatment, TVVehicle_DayN is the average tumor volume of the vehicle control group on a given day, and TVVehicle_Day0 is the average tumor volume of the vehicle group on the first day of treatment.
The T/C value (in percent) is an indication of antitumor effectiveness, T/C (%)=RTVTreatment/RTVControl×100% (RTVTreatment: the mean RTV of the treatment group; RTVControl: the mean RTV of the vehicle treated group). RTV (relative tumor volume)=TVDayN/TVDay0. TVDayN and TVDay0 is the tumor volume on day N and Day 0 respectively. T/C (%)≤42% is considered as significant antitumor activity and <10% is considered as highly significant antitumor activity by the National Cancer Institute criteria.
Relative change of body weight (RCBW) of each mouse was calculated according to the following formula: […]
Animal survival curve: When an individual animal reached to the termination endpoint (TV>2000 mm^3), the mouse was euthanized. The time from treatment initiation to the termination was deemed as its survival time. Survival curve was plotted by Kaplan-Meier method. Median survival time (MST) was calculated for each group. Increase of life span (ILS) was calculated according to the following formula: […]
ILS (%)>25% is considered as a biologically significant survival benefit. […]

[1] = 0.7 mpk S.C. 5-days ON 2-days OFF
[2] = 1.4 mpk days ON 2-days OFF x 4 cycles
[3] = 1.5 mpk qdx5, followed by 0.5 mpk qdx23
[4] = 3 mpk qdx5, followed by 1 mpk qdx23
[5] = Day 13, 0.7 mpk S.C. 5-days ON 2-days OFF
[6] = Day 13, 1.4 mpk 10-days ON 4-days OFF
[7] = Day 13, 1.4 mpk days ON 2-days OFF x 4 cycles
[8] = Day 13, 1.5 mpk qdx5, followed by 0.5 mpk qdx23
[9] = Day 13, 3 mpk qdx5, followed by 1 mpk qdx23

`CC(=O)N[C@@H](Cc1c[nH]c2ccccc12)C(=O)N[C@@H](CCC(=O)C=[N+]=[N-])C(=O)OC(C)C` [Compound 1, Isopropyl (S)-2-((S)-2-acetamido-3-(1H-indol-3-yl)propanamido)-6-diazo-5-oxohexanoate] was tested, and the ILS (0.5 mpk QD*28 days) was 126%, the “RTV at day 13” value (0.5 mpk QD*28 days) was 0 ± 0 and the MST (0.5 mpk QD*28 days) was 43 days. The ILS [1] was 208%, the “RTV at day 13” value [1] was 0 ± 0 and the MST [1] was 58.5 days. The ILS (1 mpk QD*28 days) was 126%, the “RTV at day 13” value (1 mpk QD*28 days) was 0 ± 0 and the MST (1 mpk QD*28 days) was 43 days. For the same compound, the ILS (1.4 mpk 10-days ON 4-days OFF) was 121%, the “RTV at day 13” value (1.4 mpk 10-days ON 4-days OFF) was 0 ± 0 and the MST (1.4 mpk 10-days ON 4-days OFF) was 42 days. The ILS [2] was 153%, the “RTV at day 13” value [2] was 0 ± 0 and the MST [2] was 48 days. For the same compound, the ILS [3] was 121%, the “RTV at day 13” value [3] was 0 ± 0 and the MST [3] was 42 days. The ILS [4] was 134%, the “RTV at day 13” value [4] was 0 ± 0 and the MST [4] was 44.5 days. The “Tumor volume (Mean ± SEM)” value (Day 11, Group 2: 1 mg/kg qdx28, sc) was 15 ± 3 mm^3, the “Tumor volume (Mean ± SEM)” value (Day 11, Group 3: 0.5 mg/kg qdx28, sc) was 29 ± 3 mm^3 and the “Tumor volume (Mean ± SEM)” value (Day 11, Group 4: 1.4 mg/kg 5-days ON 2-days OFF x 4 cycles, sc) was 14 ± 2 mm^3. For the same compound, the “Tumor volume (Mean ± SEM)” value (Day 11, Group 5: 0.7 mg/kg 5-days ON 2-days OFF x 4 cycles, sc) was 20 ± 4 mm^3, the “Tumor volume (Mean ± SEM)” value (Day 11, Group 6: 3 mpk qdx5 followed by 1 mpk qdx23, sc) was 24 ± 2 mm^3 and the “Tumor volume (Mean ± SEM)” value (Day 11, Group 7: 1.5 mpk qdx5 followed by 0.5 mpk qdx23, sc) was 21 ± 2 mm^3. For the same compound, the “Tumor volume (Mean ± SEM)” value (Day 11, Group 8: 1.4 mg/kg 10-days ON 4-days OFF x 2 cycles, sc) was 28 ± 4 mm^3, the T/C (Day 13, 0.5 mpk QD*28 days) was 0% and the TGI (Day 13, 0.5 mpk QD*28 days) was 103.48%. For the same compound, the T/C [5] was 0%, the TGI [5] was 104.42% and the T/C (Day 13, 1 mpk QD*28 days) was 0%. The TGI (Day 13, 1 mpk QD*28 days) was 104.87%, the T/C [6] was 0% and the TGI [6] was 104.10%. For the same compound, the T/C [7] was 0%, the TGI [7] was 104.49% and the T/C [8] was 0%. It also gave a TGI [8] of 104.24%, a T/C [9] of 0% and a TGI [9] of 104.29%. The “Tumor volume (Mean ± SEM)” value (Day 13, Group 2: 1 mg/kg qdx28, sc, 1 mg/kg) was 5 ± 2 mm^3, the “Tumor volume (Mean ± SEM)” value (Day 13, Group 3: 0.5 mg/kg qdx28, sc, 0.5 mg/kg) was 24 ± 2 mm^3 and the “Tumor volume (Mean ± SEM)” value (Day 13, Group 4: 1.4 mg/kg 5-days ON 2-days OFF x 4 cycles, sc, 1.4 mg/kg) was 11 ± 3 mm^3. The “Tumor volume (Mean ± SEM)” value (Day 13, Group 5: 0.7 mg/kg 5-days ON 2-days OFF x 4 cycles, sc, 0.7 mg/kg) was 13 ± 4 mm^3, the “Tumor volume (Mean ± SEM)” value (Day 13, Group 6: 3 mpk qdx5 followed by 1 mpk qdx23, sc) was 14 ± 3 mm^3 and the “Tumor volume (Mean ± SEM)” value (Day 13, Group 7: 1.5 mpk qdx5 followed by 0.5 mpk qdx23, sc) was 15 ± 3 mm^3. The “Tumor volume (Mean ± SEM)” value (Day 13, Group 8: 1.4 mg/kg 10-days ON 4-days OFF x 2 cycles, sc, 1.4 mg/kg) was 17 ± 4 mm^3, the “Tumor volume (Mean ± SEM)” value (Day 15, Group 2: 1 mg/kg qdx28, sc) was 1 ± 1 mm^3 and the “Tumor volume (Mean ± SEM)” value (Day 15, Group 3: 0.5 mg/kg qdx28, sc) was 17 ± 3 mm^3. For the same compound, the “Tumor volume (Mean ± SEM)” value (Day 15, Group 4: 1.4 mg/kg 5-days ON 2-days OFF x 4 cycles, sc) was 2 ± 1 mm^3, the “Tumor volume (Mean ± SEM)” value (Day 15, Group 5: 0.7 mg/kg 5-days ON 2-days OFF x 4 cycles, sc) was 6 ± 3 mm^3 and the “Tumor volume (Mean ± SEM)” value (Day 15, Group 6: 3 mpk qdx5 followed by 1 mpk qdx23, sc) was 6 ± 2 mm^3. The “Tumor volume (Mean ± SEM)” value (Day 15, Group 7: 1.5 mpk qdx5 followed by 0.5 mpk qdx23, sc) was 9 ± 2 mm^3, the “Tumor volume (Mean ± SEM)” value (Day 15, Group 8: 1.4 mg/kg 10-days ON 4-days OFF x 2 cycles, sc) was 14 ± 3 mm^3 and the “Tumor volume (Mean ± SEM)” value (Day 18, Group 2: 1 mg/kg qdx28, sc) was 1 ± 0 mm^3. For the same compound, the “Tumor volume (Mean ± SEM)” value (Day 18, Group 3: 0.5 mg/kg qdx28, sc) was 10 ± 2 mm^3, the “Tumor volume (Mean ± SEM)” value (Day 18, Group 4: 1.4 mg/kg 5-days ON 2-days OFF x 4 cycles, sc) was 0 ± 0 mm^3 and the “Tumor volume (Mean ± SEM)” value (Day 18, Group 5: 0.7 mg/kg 5-days ON 2-days OFF x 4 cycles, sc) was 3 ± 1 mm^3. For the same compound, the “Tumor volume (Mean ± SEM)” value (Day 18, Group 6: 3 mpk qdx5 followed by 1 mpk qdx23, sc) was 7 ± 3 mm^3, the “Tumor volume (Mean ± SEM)” value (Day 18, Group 7: 1.5 mpk qdx5 followed by 0.5 mpk qdx23, sc) was 8 ± 2 mm^3 and the “Tumor volume (Mean ± SEM)” value (Day 18, Group 8: 1.4 mg/kg 10-days ON 4-days OFF x 2 cycles, sc) was 8 ± 3 mm^3. For the same compound, the “Tumor volume (Mean ± SEM)” value (Day 20, Group 2: 1 mg/kg qdx28, sc) was 1 ± 0 mm^3.
